Read-outs that look alike come from different tables or passages of the source.
Legend:
[1] = PK study in dogs (intravenous and oral); assay type: in vivo
Method: The in vivo experimental protocol was approved by the Institutional Animal Care and Use Committee of Research Laboratory at Ildong pharmaceutical Co., Ltd. (Ref. No.: IDL-PDF-001 and 09005-11004). Animals were acclimatized to the laboratory conditions for at least 1 week before the experiments and were kept in the standardized conditions (20–25 °C, 55 ± 5% humidity, and a 12 h light/dark cycle). The animals fasted overnight prior to drug administration, and food was resupplied 4 h post-dose.
Male beagle dogs (body weight 9.55–10.3 kg, Beijing Marshall Biotechnology, Beijing, China) received a single intravenous dose of 10 mg/kg IDP-73152 via the cephalic vein (i.e., the injection volume of 1 mL/kg, IDP-73152 in saline). When necessary, a single dose of IDP-73152 at 20 mg/kg was also orally administered to dogs in the form of hard gelatin capsules. Blood samples were collected from the jugular vein at 0.167, 0.33, 0.5, 1, 2, 4, and 8 h (for intravenous administration study), and 0.167, 0.33, 0.5, 1, 2, 4, 6, and 8 h (for oral administration study) after the administration. Plasma was separated/collected from the blood sample by centrifugation for 5 min at 10,000× g/4 °C and stored at −80 °C until the analysis.
When necessary for a model independent PK analysis, a standard moment analysis was carried out with WinNonlin software using either representative (for the study with mice) or individual (for the study with rats, dogs, and humans) concentration–time profile(s). For the calculation of PBPK models, Berkeley Madonna 8.3.18 (Albany, CA, USA) was used with the fourth-order Runge–Kutta method for numerical integration.

[2] = Metabolic stability in rat hepatocytes; assay type: in vitro ADME
Method: For the hepatocyte incubation study, rat hepatocytes were freshly prepared using the two-step collagenase perfusion method with slight modifications. After the isolation, cell viability during the preparation process was first determined by a trypan blue exclusion assay prior to the stability study. The preparation was considered adequate for subsequent studies if the viability was greater than 80%. When appropriate, the hepatocytes were resuspended in Williams' media E containing 10% fetal bovine serum, 1% penicillin-streptomycin, and 0.01% insulin-transferrin-selenium (i.e., 10 mg/mL insulin, 5.5 mg/mL transferrin, and 5 mg/mL selenium) at pH 7.4. […] Assuming first-order disappearance kinetics, the slope k of the logarithmically transformed IDP-73152 concentration in the sample versus time plot was determined by the linear regression analysis of the data. The total intrinsic clearance (CLint,mic, μL/min/mg protein for microsomal incubation study and CLint,hep, μL/min/million cells for hepatocytes incubation study) was then calculated using the following equations:(4) CLint, mic=k×Volume of incubation medium (μL)/Protein in incubation medium (mg) (5) CLint,hep=k×Volume of incubation (μL)/Number of cells in incubation (×10^6) The unbound intrinsic clearance, with respect to the whole liver ([…]), was then estimated for the two cases. […]

[3] = male, beagle, dog, plasma, dogs, oral 20 mg/kg, hard gelatin capsules

Question: With CC(C)(C)[C@H](NC(=O)[C@H](CC1CCCC1)CN(O)C=O)C(=O)N1CCC(NCc2cc(F)c(F)cc2F)CC1 [IDP-73152] as the compound, how does the CLp ([1]; dogs, intravenous 10 mg/kg, 10 mg/kg) read?
Answer: The CLp was 11.1 ± 4.32 mL/min/kg.

Question: What about the AUC(0-inf) ([1]; male, beagle, dog, plasma, iv, 10 mg/kg) of the same compound?
Answer: Its AUC(0-inf) is 16600 ± 5900 ng·h/mL.

Question: And the clearance ([1]; male, beagle, dog, plasma, iv, 10 mg/kg, dogs, intravenous 10 mg/kg, read-out: CLp (converted))?
Answer: Its clearance is 10.3 mL/min/kg.

Question: What about the Vd ([1]; male, beagle, dog, plasma, dogs, intravenous 10 mg/kg, moment analysis, read-out: Vss) of the same compound?
Answer: Its Vd is 1.15 ± 0.46 L/kg.

Question: And the half-life ([1]; male, beagle, dog, plasma, dogs, intravenous 10 mg/kg, read-out: t1/2 (converted))?
Answer: Its half-life is 1.18 ± 0.14 h.

Question: What about the bioavailability ([1]; male, beagle, dog, plasma, dogs, oral 20 mg/kg vs intravenous 10 mg/kg, read-out: F (bioavailability)) of the same compound?
Answer: Its bioavailability is 95.5%.

Question: And the AUC(0-inf) [1, 3]?
Answer: Its AUC(0-inf) is 31600 ± 5900 ng·h/mL.

Question: What about the Cmax [1, 3] of the same compound?
Answer: The Cmax was 10500 ± 2000 ng/mL.

Question: And the Tmax [1, 3]?
Answer: The Tmax was 0.777 ± 0.387 h.

Question: What about the half-life ([1]; male, beagle, dog, plasma, dogs, oral 20 mg/kg, hard gelatin capsules, read-out: t1/2 (terminal phase half-life) (converted)) of the same compound?
Answer: Its half-life is 1.81 ± 0.04 h.

Question: And the hepatocyte CLint at 1 μM ([2]; freshly isolated hepatocytes in suspension, pH 7.4, rat hepatocytes 0.5 × 10^6 cells/mL, 1 μM, read-out: CL,int,hep)?
Answer: The hepatocyte CLint at 1 μM was 27.7 ± 3.2 µL/min/1e6 cells.

Question: And the “CLu,int,H” value ([2]; rats, scaled from rat hepatocytes)?
Answer: Its value is 6.82 ± 0.79 L/h.
